This is an account of results in US9228998B2, “Drug monitoring methods using the promyelocytic leukemia protein as a redox sensor” (Institut National de la Sante et de la Recherche Medicale …, priority 2010, dated 2016).

Each structure is given as a SMILES string.

The target in assay [1] is T1, endogenous murine PML (Mus musculus, UniProt Q60953).
T1 construct: from tissue; host or cells: mouse bone marrow cells (cytospins, FVB/NICO mice)
T1 sequence (Q60953 1-885): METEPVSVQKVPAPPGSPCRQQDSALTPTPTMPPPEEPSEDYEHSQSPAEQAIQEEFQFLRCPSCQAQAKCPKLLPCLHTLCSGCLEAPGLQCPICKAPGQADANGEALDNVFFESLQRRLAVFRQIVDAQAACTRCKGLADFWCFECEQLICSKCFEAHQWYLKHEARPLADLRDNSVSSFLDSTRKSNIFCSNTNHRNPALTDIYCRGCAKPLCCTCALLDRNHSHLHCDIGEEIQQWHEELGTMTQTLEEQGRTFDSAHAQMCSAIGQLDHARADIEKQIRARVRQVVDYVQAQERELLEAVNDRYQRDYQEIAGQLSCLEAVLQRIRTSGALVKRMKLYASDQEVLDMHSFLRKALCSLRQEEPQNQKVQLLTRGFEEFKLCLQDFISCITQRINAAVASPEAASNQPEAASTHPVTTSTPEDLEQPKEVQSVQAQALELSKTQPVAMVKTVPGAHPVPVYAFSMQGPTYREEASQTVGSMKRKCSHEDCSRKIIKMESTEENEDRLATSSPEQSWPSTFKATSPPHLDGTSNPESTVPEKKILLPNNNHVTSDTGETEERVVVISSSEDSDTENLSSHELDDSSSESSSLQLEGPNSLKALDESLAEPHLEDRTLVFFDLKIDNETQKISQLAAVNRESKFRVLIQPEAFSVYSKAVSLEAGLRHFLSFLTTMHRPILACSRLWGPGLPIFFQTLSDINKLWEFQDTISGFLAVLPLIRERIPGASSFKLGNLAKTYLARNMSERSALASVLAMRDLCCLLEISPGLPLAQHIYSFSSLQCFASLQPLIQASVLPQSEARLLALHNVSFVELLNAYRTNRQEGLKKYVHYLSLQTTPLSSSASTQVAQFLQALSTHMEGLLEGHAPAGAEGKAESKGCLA
The assay can be described thus: NB formation by endogenous murine PML in bone marrow cells of treated mice. The assay is classed as in vivo. To be noted: normal bone marrow cells of treated mice. As for the experimental part:
(§1) Mouse experiments were repeated 3 times. Animal handling was done according to the guidelines of institutional animal care committees, using protocols approved by “Comité Régional d'Ethique Expérimentation Animale (CREEA) no 4”. 25 mg/kg Paraquat (SIGMA) was daily intraperitoneally injected in PML/RARA and PML/RARA-S77A leukemic mice^17 (to be fully described elsewhere). In vivo imaging was performed using a Xenogen IVIS100 facility to ensure similar tumor mass pre-treatment. Mice were treated with 150 mg/kg for 1 h before bone marrow cytospins (from FVB/NICO) and […] tumor cryosections (NUDE/SWISS) immuno-histochemistry; CHO-PML xenografts were performed as before^42.
(§2) Disulfide bonds are oxidant-sensitive. […] As ROS status is profoundly altered in cell culture, we examined NBs in vivo in basal conditions and after acute induction of ROS. […] Thus, oxidation-triggered disulfide bonds in PML regulate its partitioning between the nucleoplasm and nuclear matrix associated NBs.
(§3) We next investigated whether oxidants enhance disulfide-bound PML multimerization. […] We thus examined whether paraquat, an acute ROS inducer, would regulate NB formation in vivo, a setting where ROS levels are likely more controlled.

Assay [2] addresses T2, PML (Homo sapiens, UniProt P29590).
T2 construct: expressed in transfected cells; host or cells: CHO (transient)
T2 sequence (P29590 1-641 isoform P29590-9): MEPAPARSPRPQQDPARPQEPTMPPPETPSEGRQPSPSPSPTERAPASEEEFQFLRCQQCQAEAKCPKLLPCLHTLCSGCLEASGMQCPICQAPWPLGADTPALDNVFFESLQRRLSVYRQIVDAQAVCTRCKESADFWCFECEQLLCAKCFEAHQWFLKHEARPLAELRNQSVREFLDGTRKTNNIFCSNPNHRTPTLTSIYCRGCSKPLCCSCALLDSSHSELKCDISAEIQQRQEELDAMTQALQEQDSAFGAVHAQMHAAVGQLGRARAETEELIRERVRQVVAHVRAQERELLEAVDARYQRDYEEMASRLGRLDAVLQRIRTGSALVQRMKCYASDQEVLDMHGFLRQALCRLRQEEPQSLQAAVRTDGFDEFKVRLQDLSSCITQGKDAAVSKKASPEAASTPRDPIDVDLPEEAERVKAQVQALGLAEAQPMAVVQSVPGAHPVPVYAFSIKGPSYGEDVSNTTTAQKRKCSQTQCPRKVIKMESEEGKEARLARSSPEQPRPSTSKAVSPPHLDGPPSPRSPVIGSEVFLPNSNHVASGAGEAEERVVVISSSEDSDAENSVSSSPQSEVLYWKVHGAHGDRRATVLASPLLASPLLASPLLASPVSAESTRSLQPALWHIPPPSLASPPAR
The assay is described as follows: Western-blot analysis under non-reducing conditions of PML-transfected CHO cells (disulfide-linked PML complexes). Type of assay: cell-based. Further details: amounts of covalent PML multimers: concentration or dose not given beside the values. To be noted: for amounts of covalent PML multimers: short exposure, CHO cells transiently overexpressing PML; for covalent PML homodimers: transiently PML- or PML3KR-transfected cells, non-reducing conditions; for formation of covalent multimers: pretreatment, transiently PML-transfected CHO cells. As for the experimental part: (§4) HeLa, MRC5, CHO, COS, SaOS and Pml−/− MEF cells were cultured in 10% Fetal calf serum DMEM medium (Gibco). Plasmid transfections were performed in CHO or COS with Effectene transfection reagent (Qiagen). Stable CHO cell lines, expressing the PML isoform, or its mutants, were obtained by cotransfection of pSG5-PMLΔSIM, pSG5-3K/RΔSIM, pSG5-C212A or pSG5-B1 with the Dsp-Hygro vector; selected for 2 weeks in […] hygromycin-containing media. Clones were selected for similar PML expression levels. PML WT, PML C60A, PMLΔCC and PML 3K/R stable expressing cell lines were described previously^25. MRC5 or SaOS were grown on coverslides and treated with 400 U/ml IFNg for 48 h and IFNa for 24 h to induce PML expression. Primary mouse APL blasts were obtained from serially transplanted APLs^16 and then cultured in RPMI medium, 10% FCS supplemented with IL-3, IL-6 and SCF (Gibco). Infection of immortalized pml−/− MEFs or primary progenitors was performed with retroviruses produced by CaCl2 transfection of Plat-E cells by with the MSCV-PML/RARA retroviral vector^16. Pml−/− or +/+ MEF cells were similarly transduced with MSCV-PML or PML mutants.
(§5) As2O3 (Fluka) treatments were performed at 1 mM or 10 mM for 1 h. H2O2 from SIGMA-Aldrich was performed for 30 min at 0.1, 1 or 10 mM as indicated, Phenylarsine oxide (PAO) was purchased from SIGMA, solubilized at 50 mg/ml in DMSO and used at 0.1 mM, 1 mM or 10 mM for 1 h, CdCl2 from Flucka, was used at a final concentration of 10 mM. Cells were treated with 10 mM Lactacystin (Calbiochem) overnight, and with 50 mg/ml ready-made cycloheximide (SIGMA) as indicated. Pre-treatments with 100 mM N-ethyl maleimide (NEM) (SIGMA) for 30 min were carried out before adding As2O3 or H2O2. TC-FlAsH (FlAs) was from Molecular Probes; cells growing on coverslides were treated with 1 mM for 1 h, washed in PBS before PFA fixation. Dithiarsolan-biotin conjugate (arsenic-biotin) was kindly given by Kenneth L. Kirk^53, solubilized in DMSO to a 5 mM stock solution, and used on cell culture at 10 mM for 1 h.
Cell lysates were resolved on 7%, 3 to 10% gradient or 12% SDS-PAGE gels and transferred onto nitrocellulose membranes. Detection was performed with the chemi-luminescent substrate SuperSignal WestPico (Pearce), using previously described home made mouse and chicken anti-hPML antibodies^15,25, the PML isoform-specific antibodies were characterized previously^29. For analysis under non-reducing conditions, b-Mercapto-Ethanol or DTT was omitted from the standard Laemmli buffer. In situ nuclear matrix was prepared as for immunofluorescence, but finally resuspended in Laemmli buffer. Purifications of 6M Guanidium-HCl denatured (His×6)-tagged proteins were done with Ni-NTA-agarose from Qiagen, as previously^25. The purification of the arsenic-bound proteins were performed from As-biotin treated CHO-PML or transiently pSG5-PML wt or C212A transfected COS cells. Cells were lysed in 2% SDS-containing RIPA with Protease Inhibitor Cocktail (PIC) (Roche Applied Science), denatured at 95° C. for 5 min to release nuclear matrix-associated PML. Streptavidin-agarose (Molecular Probes) was added to the […] lysates for 30 min to 1 h, washed three times in RIPA and arsenic bound proteins were eluted in Laemmli buffer.
Intermolecular disulfide bonds were previously implicated in stabilization of the nuclear matrix. […] We then compared total and nuclear matrix extracts from transiently transfected CHO cells under non-reducing conditions and observed that the matrix fraction was dramatically enriched in covalent PML dimers.

In assay [3] the target is T3, PML NBs (Homo sapiens, UniProt P29590).
T3 construct: expressed in transfected cells
T3 sequence (P29590 1-641 isoform P29590-9): T2 sequence (P29590 1-641 isoform P29590-9)
The assay is described as follows: NB formation in CHO-PML xenografts in nude mice. Type of assay: in vivo. Particulars: treatment of nude mice bearing CHO-PML xenografts. Here is the method:
as §1, §2, §3

The target in assay [4] is T3, PML NBs. The assay can be described thus: PML NBs in cultured cells (CHO-PML), immunofluorescence. Type of assay: cell-based. As for the experimental part:
as §4, §5
Immunofluorescence, electronic microscopy and antibodies were previously described^15. In situ nuclear matrix preparations were prepared as described^1. Confocal analyses were performed on a LSM510 Meta laser microscope (Carl Zeiss MicroImaging, Inc.) with a plan apochromat 63X N.A.1.4 oil immersion objective and increased resolution images were obtained with deconvolution software (Autodeblur, Image Quant) using blind iterative algorithms.

As for `O=[As]O[As]=O` (centres unmarked) [As2O3], in assay [1], the “NB formation by endogenous murine PML” value is “Enhanced NB formation”. Also, in assay [2], the “amounts of covalent PML multimers” value was “massively increased” and the “covalent PML homodimers” value is listed as “dramatic increase”. Besides, in assay [3], the “NB formation in CHO-PML xenografts” value is listed as “dramatic increase in NB formation”.

`[Cl][Cd][Cl]` [CdCl2]: the “NBs in cultured cells with strong oxidants” value in assay [4] is “disrupt NBs”. In addition, the “amounts of covalent PML multimers” value in assay [2] is given as “massively increased”.

Turning to `OO` [H2O2], in assay [4], the “NBs in cultured cells with strong oxidants” value was “disrupt NBs”. Also, in assay [2], the “amounts of covalent PML multimers” value is on record as “massively increased” and the “covalent PML homodimers” value is listed as “dramatic increase”.

As to `CC(=O)N[C@@H](CS)C(=O)O` [NAC, N-acetyl cysteine], the “basal NB formation” value in assay [4] (CHO-PML cells cultured for 10 days with the ROS scavenger) is “lost basal NB formation”. Besides, the NBs after wash-out entry in assay [4] (CHO-PML cells, 3 day wash-out after 10 days culture) is given as “NBs were restored”. For the same molecule, the “abundance of the high molecular weight PML forms” value in assay [2] (pretreatment of CHO cells prior to PML transfection) is reported as “dramatic decrease”. The “formation of covalent multimers” value in assay [2] is “abrogated”.

With `CCN1C(=O)C=CC1=O` [NEM, N-ethyl maleimide], the “basal PML NBs” value in assay [4] (untreated cells / CHO-PML cells, 1 hr treatment) is on record as “disrupted basal PML NBs”. Also, in assay [2], the “formation of covalent multimers” value is given as “abrogated”. In addition, the “As2O3 or H2O2-enhanced homodimer formation” value in assay [2] (thiol alkylator added with As2O3 or H2O2) is recorded as “abrogated”.

Consider `C[n+]1ccc(-c2cc[n+](C)cc2)cc1` [Paraquat], for which the “NB formation by endogenous murine PML” value in assay [1] is on record as “Identical results”; in assay [1] (listed as paraquat) it was “Enhanced NB formation”. Further, the “NB formation in CHO-PML xenografts” value in assay [3] is “dramatic increase in NBs”; in assay [3] (listed as paraquat), “dramatic increase in NB formation”.
